Like-named read-outs stand apart in the source and are kept apart here.
Assays:
anaesthetized dog = assay: Antiangorous activity on anaesthetized dog: consumption of oxygen in the left ventricule and cardiac effort (KATZ's index); format: in vivo; details: for inhibition in vivo at 2.5 mg/kg / inhibition in vivo at 1.25 mg/kg / inhibition in vivo at 5 mg/kg / inhibition in vivo at 2.4 mg/kg / inhibition in vivo at 2.3 mg/kg: Canis lupus familiaris, iv
How it was run: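 Dogs anaesthetized with sodium pentobarbital 30 mg/kg i.v.; compounds given by slow i.v. perfusion. Left ventricular O2 consumption = coronary venous flow (Morawitz cannula in coronary sinus) × arteriovenous O2 difference; cardiac effort (Katz index) = mean arterial pressure × heart rate from D2 ECG.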

in vivo = details: iv; for LD50: read-out: Toxicity: LD50; for mortality: read-out: Toxicity (Mortality)
Description: *LD50 or percentage of mortality which is given between brackets

[1] = 2.5 mg/kg i.v. slow perfusion, read-out: Diminution in consumption of O2
[2] = 2.5 mg/kg i.v. slow perfusion, read-out: Diminution in the cardiac effort (IK)
[3] = 1.25 mg/kg i.v. slow perfusion, read-out: Diminution in consumption of O2
[4] = 1.25 mg/kg i.v. slow perfusion, read-out: Diminution in the cardiac effort (IK)

## COc1cc(/C=C/C(=O)N2CCCN(CC(O)COc3ccc(C(C)=O)cc3)CC2)cc(OC)c1OC (stereo not shown) [780 415]
Anaesthetized dog; 2.5 mg/kg i.v. slow perfusion
  Diminution in consumption of O2: in time: 30 min
  Diminution in the cardiac effort (IK): in time: 30 min
Anaesthetized dog; [1]
  inhibition in vivo at 2.5 mg/kg: 29%
Anaesthetized dog; [2]
  inhibition in vivo at 2.5 mg/kg: 10%
In vivo
  LD50: 305 mg/kg

## CNC(=O)Nc1ccc(OCC(O)CN2CCN(C(=O)/C=C/c3cc(OC)c(OC)c(OC)c3)CC2)c2c1CCCC2 (stereo not shown) [771 157]
Anaesthetized dog; 2.5 mg/kg i.v. slow perfusion
  Diminution in consumption of O2: in time: 30 min
  Diminution in the cardiac effort (IK): in time: 30 min
Anaesthetized dog; [1]
  inhibition in vivo at 2.5 mg/kg: 53%
Anaesthetized dog; [2]
  inhibition in vivo at 2.5 mg/kg: 46%
In vivo
  LD50: 210 mg/kg

## COc1cc(/C=C/C(=O)N2CCN(CCCOc3ccc(C(C)=O)c4c3OCCO4)CC2)cc(OC)c1OC [760 939, 1-[3-(4-acetyl-2,3-ethylenedioxy)phenoxy]-propyl-4-(3,4,5-trimethoxycinnamoyl)piperazine]
Anaesthetized dog; 1.25 mg/kg i.v. slow perfusion
  Diminution in consumption of O2: in time: 30 min
  Diminution in the cardiac effort (IK): in time: 23 min
Anaesthetized dog; [3]
  inhibition in vivo at 1.25 mg/kg: 27%
Anaesthetized dog; [4]
  inhibition in vivo at 1.25 mg/kg: 11%
In vivo; 400 mg/kg i.v.
  mortality: 20%

## COc1cc(/C=C/C(=O)N2CCN(CC(O)COc3cccc4c3CCCC4=O)CC2)cc(OC)c1OC (stereo not shown) [760 986]
Anaesthetized dog; 2.5 mg/kg i.v. slow perfusion
  Diminution in consumption of O2: in time: 60 min
  Diminution in the cardiac effort (IK): in time: 60 min
Anaesthetized dog; [1]
  inhibition in vivo at 2.5 mg/kg: 61%
Anaesthetized dog; [2]
  inhibition in vivo at 2.5 mg/kg: 27%
In vivo
  LD50: 218 mg/kg

## COc1cc(/C=C/C(=O)N2CCN(CC(O)CSc3ccc(C)cc3)CC2)cc(OC)c1OC (stereo not shown) [770 059]
Anaesthetized dog; 5 mg/kg i.v. slow perfusion
  Diminution in consumption of O2: in time: 15 min
  Diminution in the cardiac effort (IK): in time: 15 min
Anaesthetized dog; 5 mg/kg i.v. slow perfusion, read-out: Diminution in consumption of O2
  inhibition in vivo at 5 mg/kg: 64%
Anaesthetized dog; 5 mg/kg i.v. slow perfusion, read-out: Diminution in the cardiac effort (IK)
  inhibition in vivo at 5 mg/kg: 12%
In vivo
  LD50: 91 mg/kg

## CNC(=O)N(C)c1ccc(OCC(O)CN2CCN(C(=O)/C=C/c3cc(OC)c(OC)c(OC)c3)CC2)c2c1OCCO2 (stereo not shown) [771 238]
Anaesthetized dog; 1.25 mg/kg i.v. slow perfusion
  Diminution in consumption of O2: in time: 30 min
  Diminution in the cardiac effort (IK): in time: 30 min
Anaesthetized dog; [3]
  inhibition in vivo at 1.25 mg/kg: 40%
Anaesthetized dog; [4]
  inhibition in vivo at 1.25 mg/kg: 38%
In vivo; 400 mg/kg i.v.
  mortality: 0%

## COc1cc(/C=C/C(=O)N2CCN(CC(O)COc3cc(OC)c(OC)c(OC)c3C(C)=O)CC2)cc(OC)c1OC (stereo not shown) [760 781]
Anaesthetized dog; 2.4 mg/kg i.v. slow perfusion
  Diminution in consumption of O2: in time: 90 min
  Diminution in the cardiac effort (IK): in time: 45 min
Anaesthetized dog; 2.4 mg/kg i.v. slow perfusion, read-out: Diminution in consumption of O2
  inhibition in vivo at 2.4 mg/kg: 70%
Anaesthetized dog; 2.4 mg/kg i.v. slow perfusion, read-out: Diminution in the cardiac effort (IK)
  inhibition in vivo at 2.4 mg/kg: 15%
In vivo; 377 mg/kg i.v.
  mortality: 0%

## COc1cc(/C=C/C(=O)N2CCCN(CC(O)COc3ccc(C(C)=O)c4c3OCCO4)CC2)cc(OC)c1OC (stereo not shown) [760 622]
Anaesthetized dog; 1.25 mg/kg i.v. slow perfusion
  Diminution in consumption of O2: in time: 30 min
  Diminution in the cardiac effort (IK): in time: 15 min
Anaesthetized dog; [3]
  inhibition in vivo at 1.25 mg/kg: 20%
Anaesthetized dog; [4]
  inhibition in vivo at 1.25 mg/kg: 17%
In vivo; 400 mg/kg i.v.
  mortality: 40%

## COc1cc(/C=C/C(=O)N2CCN(CC(O)COc3ccc(CO)c4c3OCCO4)CC2)cc(OC)c1OC (stereo not shown) [760 705]
Anaesthetized dog; 1.25 mg/kg i.v. slow perfusion
  Diminution in consumption of O2: in time: 38 min
  Diminution in the cardiac effort (IK): in time: 75 min
Anaesthetized dog; [3]
  inhibition in vivo at 1.25 mg/kg: 51%
Anaesthetized dog; [4]
  inhibition in vivo at 1.25 mg/kg: 26%
In vivo; 400 mg/kg i.v.
  mortality: 20%

## COc1cc(/C=C/C(=O)N2CCN(CC(O)COc3ccc4c(c3)OCO4)CC2)cc(OC)c1OC (stereo not shown) [760 529]
Anaesthetized dog; 2.3 mg/kg i.v. slow perfusion
  Diminution in consumption of O2: in time: 30 min
  Diminution in the cardiac effort (IK): in time: 15 min
Anaesthetized dog; 2.3 mg/kg i.v. slow perfusion, read-out: Diminution in consumption of O2
  inhibition in vivo at 2.3 mg/kg: 53%
Anaesthetized dog; 2.3 mg/kg i.v. slow perfusion, read-out: Diminution in the cardiac effort (IK)
  inhibition in vivo at 2.3 mg/kg: 19%
In vivo
  LD50: 115 mg/kg

## COc1cc(/C=C/C(=O)N2CCN(CC(O)COc3ccc(C(C)=O)cc3C)CC2)cc(OC)c1OC (stereo not shown) [770 993, 1-[3-(2-methyl-4-acetyl)phenyl-2-hydroxy]-propyl-4-(3,4,5-trimethoxycinnamoyl)piperazine chlorhydrate]
Anaesthetized dog; 2.5 mg/kg i.v. slow perfusion
  Diminution in consumption of O2: in time: 23 min
  Diminution in the cardiac effort (IK): in time: 13 min
Anaesthetized dog; [1]
  inhibition in vivo at 2.5 mg/kg: 53%
Anaesthetized dog; [2]
  inhibition in vivo at 2.5 mg/kg: 15%
In vivo
  LD50: 10 mg/kg
